Values of other authors as cited in US20090239878A1, “COMBINATIONS OF (A) AN ATP-COMPETITIVE INHIBITOR OF C-ABL KINASE ACTIVITY WITH (B) TWO OR MORE OTHER ANTINEOPLASTIC AGENTS” (priority 2002, published 2009).

Legend:
[1] = tested on: platelet-derived growth factor receptor; conditions: preclinical studies
c-kit receptor = c-kit receptor (Homo sapiens, UniProt P10721); conditions: preclinical studies
[2] = tested on: CEM/ara-C/I monoclonal clone; conditions: ara-C resistant cell line versus CEM/0

c-kit receptor, sequence (P10721 26-976): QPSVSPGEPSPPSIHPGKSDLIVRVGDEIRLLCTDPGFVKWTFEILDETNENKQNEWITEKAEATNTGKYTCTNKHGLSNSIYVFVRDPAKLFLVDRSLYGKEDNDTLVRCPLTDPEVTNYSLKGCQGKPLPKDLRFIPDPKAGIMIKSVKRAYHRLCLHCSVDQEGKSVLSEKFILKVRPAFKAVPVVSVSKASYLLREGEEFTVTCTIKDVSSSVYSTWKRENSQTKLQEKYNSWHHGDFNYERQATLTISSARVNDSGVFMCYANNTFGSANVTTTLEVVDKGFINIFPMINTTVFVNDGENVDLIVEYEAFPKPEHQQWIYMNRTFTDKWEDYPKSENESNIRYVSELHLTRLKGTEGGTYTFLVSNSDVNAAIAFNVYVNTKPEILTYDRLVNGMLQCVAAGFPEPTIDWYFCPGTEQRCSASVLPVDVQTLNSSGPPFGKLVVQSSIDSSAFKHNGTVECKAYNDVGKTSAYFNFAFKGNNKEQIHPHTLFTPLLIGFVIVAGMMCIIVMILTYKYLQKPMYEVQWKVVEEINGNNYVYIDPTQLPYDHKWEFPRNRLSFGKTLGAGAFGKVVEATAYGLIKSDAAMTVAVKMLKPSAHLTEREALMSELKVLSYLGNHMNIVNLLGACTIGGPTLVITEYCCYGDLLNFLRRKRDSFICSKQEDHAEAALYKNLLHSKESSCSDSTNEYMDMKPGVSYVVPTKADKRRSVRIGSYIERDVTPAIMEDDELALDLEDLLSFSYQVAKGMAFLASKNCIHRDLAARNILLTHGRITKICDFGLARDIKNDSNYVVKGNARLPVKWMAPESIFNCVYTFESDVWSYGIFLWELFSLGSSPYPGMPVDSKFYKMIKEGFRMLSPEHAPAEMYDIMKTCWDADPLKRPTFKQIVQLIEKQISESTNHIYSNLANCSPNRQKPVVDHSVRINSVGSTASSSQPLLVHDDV

Row | Molecule | inhibition of kinase activity [1] | inhibition of kinase activity (c-kit receptor) | sensitivity to ara-C relative to wild type [2]
1 | N-{5-[4-(4-methyl-piperazino-methyl)-benzoylamido]-2-methylphenyl}-4-(3-pyridyl)-2-pyrimidine-amine [STI571] | inhibits the kinase activities | inhibits the kinase activities | 
2 | Nc1ccn([C@@H]2O[C@H](CO)[C@@H](O)[C@@H]2O)c(=O)n1 [ara-C, cytosine arabinoside] |  |  | less than 1 % of the wild type CEM/0 cell line
